# From US20240228438A1, “SOLID FORMS OF SALTS OF 4-[5-[(3S)-3-AMINOPYRROLIDINE-1-CARBONYL]-2-[2-FLUORO-4-(2- HYDROXY-2-ETHYLPROPYL)PHENYL]PHENYL]-2-FLUORO-BENZONITRILE” (Astex Pharmaceuticals, Inc., priority 2021, published 2024)
# Where a name gives a salt, the structure may show the parent alone.
# Legend:
# [1] = Stability testing: water absorption of salt forms at 40° C. and 75% RH for five days (KF); type: physicochemical; details: for Initial KF: water content before exposure; for KF water content after 5 days at 40° C./75% RH: open vial covered with Kim wipe
# Protocol: The stability of different salt forms was tested. The salts were placed in 20-mL scintillation vials and covered with Kim wipe, and the resulting vials were exposed to 40° C. and 75% RH (relative humidity) for five days. The samples were analyzed for water absorption.
# [2] = Aqueous solubility of the salt form (overall assessment); type: physicochemical; details: in words
structure (smiles),measurement,setting,value
"CC(C)(O)Cc1ccc(-c2ccc(C(=O)N3CC[C@H](N)C3)cc2-c2ccc(C#N)c(F)c2)c(F)c1 [esylate Form IVA, 4-[5-[(3S)-3-aminopyrrolidine-1-carbonyl]-2-[2-fluoro-4-(2-hydroxy-2-methylpropyl)phenyl]phenyl]-2-fluoro-benzonitrile esylate]",Initial KF,[1],0.76%
"CC(C)(O)Cc1ccc(-c2ccc(C(=O)N3CC[C@H](N)C3)cc2-c2ccc(C#N)c(F)c2)c(F)c1 [hemi-fumarate Form I, 4-[5-[(3S)-3-aminopyrrolidine-1-carbonyl]-2-[2-fluoro-4-(2-hydroxy-2-methylpropyl)phenyl]phenyl]-2-fluoro-benzonitrile hemi fumarate]",KF water content after 5 days at 40° C./75% RH,[1]; five days,1.57%
same,hygroscopicity,"[1]; overall assessment, in words",slightly hygroscopic
same,residual water,"[1]; overall assessment, in words",low residual water
same,Initial KF,[1],0.69%
"CC(C)(O)Cc1ccc(-c2ccc(C(=O)N3CC[C@H](N)C3)cc2-c2ccc(C#N)c(F)c2)c(F)c1 [maleate Form V, 4-[5-[(3S)-3-aminopyrrolidine-1-carbonyl]-2-[2-fluoro-4-(2-hydroxy-2-methylpropyl)phenyl]phenyl]-2-fluoro-benzonitrile maleate]",Initial KF,[1]; maleate,1.08%
"CC(C)(O)Cc1ccc(-c2ccc(C(=O)N3CC[C@H](N)C3)cc2-c2ccc(C#N)c(F)c2)c(F)c1 [mesylate Form IIIA, 4-[5-[(3S)-3-aminopyrrolidine-1-carbonyl]-2-[2-fluoro-4-(2-hydroxy-2-methylpropyl)phenyl]phenyl]-2-fluoro-benzonitrile mesylate]",Initial KF,[1]; mesylate,2.55%
CC(C)(O)Cc1ccc(-c2ccc(C(=O)N3CC[C@H](N)C3)cc2-c2ccc(C#N)c(F)c2)c(F)c1 [mono-fumarate Form VI],moisture take-up under the tested conditions,"[1]; 40° C./75% RH, five days, result in words",did not take-up moisture
same,KF water content after 5 days at 40° C./75% RH,[1]; five days,0.63%
same,Initial KF,[1],0.61%
"CC(C)(O)Cc1ccc(-c2ccc(C(=O)N3CC[C@H](N)C3)cc2-c2ccc(C#N)c(F)c2)c(F)c1 [mono-oxalate (from EtOH) Form II, 4-[5-[(3S)-3-aminopyrrolidine-1-carbonyl]-2-[2-fluoro-4-(2-hydroxy-2-methylpropyl)phenyl]phenyl]-2-fluoro-benzonitrile mono-oxalate]",KF water content after 5 days at 40° C./75% RH,"[1]; five days, mono-oxalate",4.46%
same,hygroscopicity,"[1]; overall assessment, in words",slightly hygroscopic
same,Initial KF,[1]; mono-oxalate,1.06%
same,aqueous solubility,[2],good aqueous solubility
CC(C)(O)Cc1ccc(-c2ccc(C(=O)N3CC[C@H](N)C3)cc2-c2ccc(C#N)c(F)c2)c(F)c1 [mono-oxalate salt (from IPA)],KF water content after 5 days at 40° C./75% RH,[1]; five days,4.99%
same,Initial KF,[1],2.66%
